Assay results reported in patent publication US8633245B2, “PAI-1 inhibitor” (Institute of Medicinal Molecular Design, Inc., priority 2008, dated 2014).

Molecular target: T1, recombinant human PAI-1 (Homo sapiens, UniProt P05121)
T1 construct: purchased Molecular Innovations, Inc
Assay: Test Example 2: human PAI-1 inhibitory activity (tPA fluorogenic substrate, pH 7.4 HEPES buffer)
Format: biochemical
Conditions: human PAI-1
Procedure: 0.1 M HEPES, 0.1 M NaCl. 1 mM EDTA. 0.1% Polyethylene glycol 8,000 (Hampton Research Corporation),
2 mM Dimethyldecylphoshine oxide [Apo-10] (Fluka Corporation)

T1 sequence (P05121 24-402): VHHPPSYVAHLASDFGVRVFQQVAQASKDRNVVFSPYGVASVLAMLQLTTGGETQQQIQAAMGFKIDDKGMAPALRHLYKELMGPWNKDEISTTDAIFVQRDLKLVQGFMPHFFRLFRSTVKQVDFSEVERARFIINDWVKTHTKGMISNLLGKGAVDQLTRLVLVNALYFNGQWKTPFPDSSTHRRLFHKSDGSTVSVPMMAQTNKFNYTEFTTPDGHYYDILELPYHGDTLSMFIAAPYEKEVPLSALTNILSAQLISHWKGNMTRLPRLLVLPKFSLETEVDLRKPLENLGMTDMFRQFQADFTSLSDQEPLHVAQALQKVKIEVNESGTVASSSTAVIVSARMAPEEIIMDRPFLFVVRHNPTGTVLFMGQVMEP

| Inhibition Rate of PAI-1 Activity (%) (compound concentration 0.1 μM) | Inhibition Rate of PAI-1 Activity (%) (compound concentration 0.3 μM) | Inhibition Rate of PAI-1 Activity (%) (compound concentration 1 μM) | Inhibition Rate of PAI-1 Activity (%) (compound concentration 3 μM) | SMILES |
| --- | --- | --- | --- | --- |
| 3 | 13 | 84 | >99 | CC(C)(C)c1ccc(Oc2cc(-c3ccc(C(C)(C)C)cc3)ccc2OCC(=O)O)cc1 [Compound 446] |
| 4 | 11 | 89 | >99 | CCC(CC)Oc1ccc(-c2ccc(OCC(=O)O)c(Oc3ccc(C(C)(C)C)cc3)c2)cc1 [Compound 447] |
| 4 | 11 | 39 | >99 | CSc1ccc(-c2ccc(OCC(=O)O)c(Oc3ccc(C(C)(C)C)cc3)c2)cc1 [Compound 448] |
| 9 | 11 | 58 | 98 | CC(C)(C)c1ccc(Oc2cc(-c3ccc(OC(F)(F)F)cc3)ccc2/C=C\C(=O)O)cc1 [Compound 450] |
| 9 | 8 | 15 | 94 | O=C(O)COc1cc(Oc2ccc(OC(F)(F)F)cc2)ccc1OCCCCc1ccccc1 [Compound 452] |
| 4 | 15 | 96 | >99 | CC(C)(C)c1ccc(Oc2ccc(-c3ccc(C(C)(C)C)cc3)cc2OCC(=O)O)cc1 [Compound 453] |
| 11 | 17 | >99 | >99 | CCCCCOc1ccc(-c2ccc(Oc3ccc(C(C)(C)C)cc3)c(OCC(=O)O)c2)cc1 [Compound 454] |
| 9 | 20 | 93 | 99 | CC(C)(C)c1ccc(Oc2cc(-c3cc(Cl)ccc3Cl)ccc2OCC(=O)O)cc1 [Compound 455] |
| 7 | 13 | 70 | 98 | CC(C)(C)c1ccc(Oc2cc(-c3ccccc3OC(F)(F)F)ccc2OCC(=O)O)cc1 [Compound 456] |
| 21 | 18 | 63 | >99 | CC(C)(C)c1ccc(Oc2cc(-c3ccc(Cl)cc3)ccc2OCC(=O)O)cc1 [Compound 457] |
| 26 | 31 | 42 | 86 | CC(C)(C)c1ccc(Oc2cc(-c3ccc(F)cc3)ccc2OCC(=O)O)cc1 [Compound 459] |
| 1 | 8 | 63 | >99 | CC(C)Oc1ccc(-c2ccc(OCC(=O)O)c(Oc3ccc(C(C)(C)C)cc3)c2)cc1 [Compound 460] |
| 1 | 26 | 95 | 98 | CCCCOc1ccc(Oc2cc(-c3ccc(OC(F)(F)F)cc3)ccc2CCC(=O)O)cc1 [Compound 461] |
| 37 | 94 | 97 | 95 | CC(C)(C)c1ccc(Sc2cc(-c3ccc(OC(F)(F)F)cc3)ccc2/C=C/C(=O)O)cc1 [Compound 462] |
| 10 | 17 | 87 | 98 | CC(C)(C)c1ccc(-c2ccc(OCC(=O)O)c(Oc3cccc(C(C)(C)C)c3)c2)cc1 [Compound 465] |
| 4 | 9 | 88 | >99 | CC(C)(C)c1ccc(Oc2cc(-c3ccccc3OC(F)(F)F)ccc2/C=C/C(=O)O)cc1 [Compound 466] |
| 2 | 6 | 73 | >99 | CC(C)(C)c1ccc(Oc2cc(-c3ccccc3OC(F)(F)F)ccc2CCC(=O)O)cc1 [Compound 467] |
| 1 | 5 | 86 | 97 | CCCCOc1ccc(-c2ccc(OCC(=O)O)c(Oc3ccc(C(C)(C)C)cc3)c2)cc1 [Compound 468] |
| 4 | 22 | 96 | >99 | CC(C)(C)c1ccc(Oc2cc(-c3ccc4ccccc4c3)ccc2/C=C/C(=O)O)cc1 [Compound 469] |

| Inhibition Rate of PAI-1 Activity (%) (compound concentration 0.1 μM) | Inhibition Rate of PAI-1 Activity (%) (compound concentration 0.3 μM) | Inhibition Rate of PAI-1 Activity (%) (compound concentration 1 μM) | Inhibition Rate of PAI-1 Activity (%) (compound concentration 3 μM) | SMILES |
| --- | --- | --- | --- | --- |
| 3 | 16 | 87 | >99 | CC(C)(C)c1ccc(Oc2cc(-c3ccc4ccccc4c3)ccc2CCC(=O)O)cc1 [Compound 470] |
| 5 | 7 | 11 | 49 | CC(C)(C)c1ccc(Oc2cc(-c3ccc(C#N)cc3)ccc2OCC(=O)O)cc1 [Compound 471] |
| 15 | 14 | 71 | >99 | CCCCOc1cccc(Oc2cc(-c3ccc(OC(F)(F)F)cc3)ccc2CCC(=O)O)c1 [Compound 472] |
| 15 | 9 | 26 | >99 | CC(C)(C)Oc1ccc(Oc2cc(-c3ccc(OC(F)(F)F)cc3)ccc2CCC(=O)O)cc1 [Compound 473] |
| 2 | 11 | 43 | >99 | O=C(O)CCc1ccc(-c2ccc(OC(F)(F)F)cc2)cc1Oc1ccc(C(F)(F)F)cc1 [Compound 474] |
| 4 | 27 | 94 | >99 | CCC(C)(C)c1ccc(Oc2cc(-c3ccc(OC(F)(F)F)cc3)ccc2CCC(=O)O)cc1 [Compound 475] |
| 0 | 3 | 65 | >99 | O=C(O)CCc1ccc(-c2ccc(OC(F)(F)F)cc2)cc1Oc1ccc2ccccc2c1 [Compound 476] |
| 7 | 21 | 60 | >99 | O=C(O)/C=C/c1ccc(-c2ccc(OC(F)(F)F)cc2)cc1Oc1ccc(OC(F)(F)F)cc1 [Compound 477] |
| 11 | 33 | 90 | >99 | CC(C)(C)c1ccc(-c2ccc(/C=C/C(=O)O)c(Oc3ccc(OC(F)(F)F)cc3)c2)cc1 [Compound 478] |
| 17 | 14 | 70 | >99 | O=C(O)CCc1ccc(-c2ccc(OC(F)(F)F)cc2)cc1Oc1ccc(OC(F)(F)F)cc1 [Compound 479] |
| 17 | 22 | 80 | >99 | CC(C)(C)c1ccc(-c2ccc(CCC(=O)O)c(Oc3ccc(OC(F)(F)F)cc3)c2)cc1 [Compound 480] |
| 19 | 16 | 70 | >99 | CCCCc1ccc(Oc2cc(-c3ccc(OC(F)(F)F)cc3)ccc2OCC(=O)O)cc1 [Compound 481] |
| 0 | 8 | 76 | >99 | CC(C)(C)c1ccc(Oc2cc(-c3cc(Cl)ccc3Cl)ccc2/C=C/C(=O)O)cc1 [Compound 483] |
| 0 | 7 | 73 | >99 | CC(C)(C)c1ccc(Oc2cc(-c3cc(Cl)ccc3Cl)ccc2CCC(=O)O)cc1 [Compound 484] |
| 0 | 6 | 11 | 69 | CC(C)(C)c1ccc(Oc2cc(-c3cccc([N+](=O)[O-])c3)ccc2OCC(=O)O)cc1 [Compound 485] |
| 0 | 3 | 26 | 98 | O=C(O)/C=C/c1ccc(-c2ccc(OC(F)(F)F)cc2)cc1OCCCOCc1ccccc1 [Compound 487] |
| 0 | 10 | 36 | 91 | O=C(O)CCc1ccc(-c2ccc(OC(F)(F)F)cc2)cc1OCCCOCc1ccccc1 [Compound 488] |
| 12 | 14 | 69 | >99 | O=C(O)/C=C/c1ccc(-c2ccc(OC(F)(F)F)cc2)cc1OCCCSc1ccccc1 [Compound 489] |
